Tests used:
[1] = tested on: chromatin reporter array in U2OS cells; assay: Chromatin reporter array (LacO) unfolding; format: cell-based; conditions: doxycycline 1 μg ml^−1 24 h, LacI-tethered, n>300
Excerpt: Figure 7 hHP1β dimerization is required for maintaining condensed cellular chromatin states. (a) Schematic diagram of the transgene system used to test chromatin compaction effects of hHP1β. A tandem array of the construct has been integrated into the genome of U2OS mammalian cells. Dox, doxycycline; rtTA, reverse tetracycline-controlled TET-VP16 transactivator, whose binding to tetracycline responsive elements (RE) is activated by doxycycline. (b) Together with mCherry-LacI, the indicated fusion proteins were transiently expressed in U2OS cells containing the chromatin reporter array as described in a. Representative confocal images in the absence or after induction of transcription from the array with doxycycline (Dox) are shown. DNA was stained with DAPI. Inlets show enlarged chromatin reporter array; scale bar, 10 μm. (c) Quantification of the results shown in b together with results of similar experiments using additional hHP1β mutant proteins. Averages of three independent experiments are plotted; error bars represent s.d.; n>300 for each condition; asterisks represent P<0.05 according to Student's t-test.
U2OS 2-6-3 CLTon cells[38] were kindly provided by Dr Supriya Prasanth (University of Illinois, IL, USA) and maintained in DMEM (high glucose+GlutaMax) (GIBCO/Invitrogen, Darmstadt, Germany) supplemented with 10% (v/v) TET system approved fetal bovine serum (Clontech, Saint-Germain-en-Laye, France), 50 μg ml^−1 hygromycin (Carl Roth, Karlsruhe, Germany) and 200 μg ml^−1 G418 (Clontech, Saint-Germain-en-Laye, France). For fluorescence microscopy, cells were grown on coverslips in a six-well plate without antibiotics. 500 ng plasmid DNA was transfected using Lipofectamine LTX and Plus reagent (Invitrogen, Darmstadt, Germany). 20 h post transfection, cells were treated with 1 μg ml^−1 doxycycline for 24 h for induction of rtTA expression. Cells were washed twice with PBS and fixed with 3.7% (v/v) formaldehyde/PBS for 10 min at RT. […] P values (according to Student's t-test) were calculated using GraphPad QuickCals (GraphPad, CA, USA).

H3K9me3 oligonucleosomes [2] = assay: Fluorescence correlation spectroscopy (FCS), H3K9me3 oligonucleosomes; format: biochemical, Xenopus laevis; conditions: 150 mM NaCl
Method: All fluorescence measurements were performed with a pulsed custom-built mode-locked Ti:Sa-Laser and a confocal two-photon fluorescence microscope setup. Detailed description of the experimental setup and the measurement procedure are available on request. In all cases 10 nM of the acceptor labelled species, ATTO 610-labelled nucleosomal array, was incubated with 20–200 μM of recombinant hHP1β in 10 μl of 10 mM triethanolamine HCl (pH 7.5), 0.1 mM EDTA, 150 mM NaCl at 4°C. For each sample the fluorescence correlation curve, fluorescence intensity and anisotropy values were determined at 22°C. Every data point was averaged over a minimum of 15 single measurements of 10 s each. Excitation was by two-photon mode.
The fluorescence data were analysed using the correlation function [drawing 1] , and the equation for free diffusion of particles [drawing 2] , where I(t) is the fluorescence intensity measured at time t, N the particle number, τD the diffusion time, and r0=0.25 the axis ratio of the focal region, considering the dimensions of a Gaussian beam waist.
Supplementary Figure 3: Analysis of chromatin clustering m ediated by hHP1β.
(a) Schematic representation of a stepwise precipitation and resolubilization experiment.
(b) Results of stepwise precipitation and resolubilization after clustering H3K9me3-oligonucleosomes by hHP1β at different concentrations. DNA remaining in the supernatant after centrifugation was incubated with EtBr and measured by fluorescence reading. Data were normalized to amounts present in the input.
Results of a representative experiment are shown.
(c) Instrumental setup used for two -photon fluorescence correlation spectroscopy (FCS). The beam of a pulsed Ti:Sa-Laser is reflected into a water immersion objective (O) via a dichroic mirror (M). The fluorescence light transmitted through this dichroic mirror is split up by a second dichroic mirror. Blow- […]
F: filter, L: lens, M: dichroic mirror, O:objective, PD:
(d) Scheme of the strategy used for FCS measurements. DNA of oligonucleosomes was labeled at the 5’- […]

H3K9me3 oligonucleosomes [3] = assay: Scanning force microscopy; format: biochemical, Xenopus laevis; conditions: 50 mM NaCl
Method: Nucleosomal arrays and recombinant hHP1β were dialyzed against SFM buffer (5 mM triethanolamine (pH7.5), 50 mM NaCl, 0.1 mM EDTA). The recombinant proteins at different concentrations (between 0 and 5 μM) were preincubated with oligonucleosomes at a DNA concentration of 50 ng ml^−1 in SFM buffer for 1 h at 4°C, and the samples were fixed with 0.05% (v/v) fresh glutaraldehyde (Electron Microscopy Sciences, PA, USA) at 4°C overnight. Fixed samples were extensively dialyzed against TEAE buffer (5 mM triethanolamine (pH 7.5), 0.1 mM EDTA). 10 μl of dialyzed sample was deposited on ca. 1 cm^2 of freshly cleaved mica (Plano). After 5 min incubation at RT, the mica was washed with 200 μl of water (high-performance liquid chromatography grade) and air-dried. Images were recorded in air on a Nanoscope V Multi Mode scanning force microscope (Veeco, NY, USA) using an ‘E'-scanner with maximum scan size of 15 × 15 μm and silicon-etched probe tips with a typical spring constant of 40 N m^−1 and a typical resonance frequency of 325 kHz (NSC15, MikroMasch) in tapping mode. […]

mouse fibroblasts = assay: Subnuclear distribution of EGFP fusion proteins; format: cell-based; conditions: GFP fusions transiently expressed, n >100
Excerpt: Supplementary Figure 11: Subnuclear distribution of hHP1 β wild type and mutant proteins .
(a) The indicated proteins fused to EGFP were transiently expressed in mouse fibroblast cells.
Representative fluorescence confocal images are shown. DNA was stained with DAPI. Scale bar […]
(b) Quantification of the subnuclear distribution of the hHP1β WT and mutant proteins analyzed as in ( a) by visual inspection. EGFP signal in each transfected cell was categoriz ed into ‘dotted’ (see WT distribution in panel a) or ‘diffuse’ (see distribution of I161A in panel a). n >100 for each condition.
(1 picture or pasted object on this page, not shown here)

Substance | unfolding of the array on activation [1] | maximum hydrodynamic radius (H3K9me3 oligonucleosomes [2]; 10 nM ATTO 610-labelled array, highest protein concentration) | EC50 (H3K9me3 oligonucleosomes [2]; 23°C, read-out: half-maximal effect, FCS) | structures observed by SFM (H3K9me3 oligonucleosomes [3]; 0.5 μM protein) | structures observed by SFM (H3K9me3 oligonucleosomes [3]; 5 μM protein) | frequency of condensed chromatin fibres and large clusters, H3K9me0 (H3K9me3 oligonucleosomes [3]; H3K9me0 chromatin, n>50) | subnuclear distribution (mouse fibroblasts) | complex formation by clustering (FCS) (H3K9me3 oligonucleosomes [2]) | frequency of condensed chromatin fibres and large clusters (H3K9me3 oligonucleosomes [3]; H3K9me3 chromatin, n>50)
hHP1β WT: recombinant human heterochromatin protein 1β (GenBank NM_001127228), 185 aa | largely reduced | 450 nm | 3.5 µM | individual but highly condensed H3K9me3 chromatin species | larger clusters that must contain multiple oligonucleosomes were visible | much lower for H3K9me0 chromatin with hHP1β WT | largely localized to characteristic areas of pericentromeric heterochromatin enriched in H3K9me3 |  | 
hHP1β I161A: CSD point mutant of hHP1β incapable of dimerization | largely reduced by tethering of LacI-YFP-hHP1β WT but not the dimerization deficient I161A mutant |  |  |  |  |  | diffuse distribution | No such complex formation by clustering | much lower
